This passage reports IC50 results from ChEMBL document CHEMBL5725589, “Heterocyclic compounds as PI3K-γ inhibitors” (2018).

Usually IC50 stands for the concentration at which inhibition is half-maximal.

Some results are limits rather than exact numbers.

Assay [1] deals with Tyrosine-protein kinase JAK1 (Homo sapiens, UniProt P23458). The assay can be described thus: In Vitro JAK Kinase Assay: Compounds herein were tested for inhibitory activity of JAK targets according to the following in vitro assay described in Park et al., Analytical Biochemistry 1999, 269, 94-104. The catalytic domains of human JAK1 (a.a. 837-1142), JAK2 (a.a. 828-1132) and JAK3 (a.a. 781-1124) were expressed using baculovirus in insect cells and purified. The catalytic activity of JAK1 ….

Assay [2] has as its target Phosphatidylinositol 4,5-bisphosphate 3-kinase catalytic subunit gamma isoform (Homo sapiens, UniProt P48736). Description: PI3Kγ (p110γ) Recombinant Human Protein was purchased from Life technology (Grand Island, N.Y.). […] The final concentration of DMSO in the assay was 2%. […] ATP, 13 nM PI3Kγ. […] The final concentration of SPA beads is 1.0 mg/mL.
The target in assay [3] is T1, Phosphatidylinositol 4,5-bisphosphate 3-kinase catalytic subunit delta isoform (Homo sapiens, UniProt O00329).
T1 sequence (O00329 whole entry): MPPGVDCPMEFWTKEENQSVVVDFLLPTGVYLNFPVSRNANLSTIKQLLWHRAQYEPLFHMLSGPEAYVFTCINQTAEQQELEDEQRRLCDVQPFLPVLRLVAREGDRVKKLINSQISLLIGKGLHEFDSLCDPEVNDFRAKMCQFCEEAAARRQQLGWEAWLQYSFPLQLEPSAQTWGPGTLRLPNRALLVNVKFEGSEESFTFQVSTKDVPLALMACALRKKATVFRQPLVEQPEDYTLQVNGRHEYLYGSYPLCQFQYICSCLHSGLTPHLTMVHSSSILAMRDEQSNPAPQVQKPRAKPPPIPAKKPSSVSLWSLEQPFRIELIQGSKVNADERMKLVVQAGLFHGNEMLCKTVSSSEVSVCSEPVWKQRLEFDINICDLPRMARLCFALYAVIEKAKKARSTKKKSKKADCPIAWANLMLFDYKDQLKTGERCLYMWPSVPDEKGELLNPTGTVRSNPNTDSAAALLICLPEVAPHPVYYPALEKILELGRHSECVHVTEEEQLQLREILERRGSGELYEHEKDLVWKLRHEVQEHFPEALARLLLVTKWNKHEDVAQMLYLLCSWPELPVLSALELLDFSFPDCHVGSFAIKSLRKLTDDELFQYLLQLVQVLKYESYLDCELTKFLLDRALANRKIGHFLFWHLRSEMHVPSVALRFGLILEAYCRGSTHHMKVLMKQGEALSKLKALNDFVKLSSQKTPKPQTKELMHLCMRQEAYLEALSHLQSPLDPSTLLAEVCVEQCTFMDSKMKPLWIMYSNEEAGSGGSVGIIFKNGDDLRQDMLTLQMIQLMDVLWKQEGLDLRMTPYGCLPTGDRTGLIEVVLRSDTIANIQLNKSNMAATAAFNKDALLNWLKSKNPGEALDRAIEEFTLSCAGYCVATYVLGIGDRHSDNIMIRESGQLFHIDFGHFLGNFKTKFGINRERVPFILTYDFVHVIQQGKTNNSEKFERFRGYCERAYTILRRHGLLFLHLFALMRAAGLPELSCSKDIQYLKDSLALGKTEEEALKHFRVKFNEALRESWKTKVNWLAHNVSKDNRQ
Description: PI3Kδ (p110δ/p85α) Recombinant Human Protein was purchased from Eurofins (St Charles, Mo.). […] The final concentration of DMSO in the assay was 2%. […] ATP, 3.4 nM PI3Kδ. […] The final concentration of SPA beads is 1.0 mg/mL.

Phosphatidylinositol 4,5-bisphosphate 3-kinase catalytic subunit gamma isoform, sequence (P48736 whole entry, canonical isoform): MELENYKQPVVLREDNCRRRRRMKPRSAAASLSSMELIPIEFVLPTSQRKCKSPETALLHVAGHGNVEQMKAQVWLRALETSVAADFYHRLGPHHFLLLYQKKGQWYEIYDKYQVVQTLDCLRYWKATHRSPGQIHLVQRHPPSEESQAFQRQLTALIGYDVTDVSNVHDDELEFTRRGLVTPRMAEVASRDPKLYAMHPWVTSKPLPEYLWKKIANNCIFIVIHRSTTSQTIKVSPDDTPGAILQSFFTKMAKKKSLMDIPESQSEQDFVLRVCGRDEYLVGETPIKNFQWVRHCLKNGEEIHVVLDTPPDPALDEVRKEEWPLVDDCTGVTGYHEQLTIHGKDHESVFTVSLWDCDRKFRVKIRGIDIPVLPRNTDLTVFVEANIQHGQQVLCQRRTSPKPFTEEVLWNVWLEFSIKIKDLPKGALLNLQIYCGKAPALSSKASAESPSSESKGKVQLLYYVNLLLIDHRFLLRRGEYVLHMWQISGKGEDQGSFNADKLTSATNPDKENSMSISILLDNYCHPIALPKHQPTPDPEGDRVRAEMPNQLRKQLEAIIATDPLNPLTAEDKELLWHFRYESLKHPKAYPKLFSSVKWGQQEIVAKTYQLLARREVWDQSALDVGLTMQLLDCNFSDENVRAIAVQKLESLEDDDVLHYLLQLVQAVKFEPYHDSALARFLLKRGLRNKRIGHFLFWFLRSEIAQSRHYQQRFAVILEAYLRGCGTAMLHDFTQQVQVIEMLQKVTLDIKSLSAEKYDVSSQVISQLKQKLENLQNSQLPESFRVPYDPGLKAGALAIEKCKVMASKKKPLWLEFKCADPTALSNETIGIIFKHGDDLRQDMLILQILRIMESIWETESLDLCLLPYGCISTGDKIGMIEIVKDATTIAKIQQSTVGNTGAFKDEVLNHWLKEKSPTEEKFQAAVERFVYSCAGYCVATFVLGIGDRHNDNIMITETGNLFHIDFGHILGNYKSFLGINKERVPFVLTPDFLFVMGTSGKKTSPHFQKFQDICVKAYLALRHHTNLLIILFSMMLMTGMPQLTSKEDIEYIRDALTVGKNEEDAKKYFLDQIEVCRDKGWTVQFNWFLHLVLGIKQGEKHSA
Tyrosine-protein kinase JAK1, sequence (P23458 whole entry, the tested form may be a part): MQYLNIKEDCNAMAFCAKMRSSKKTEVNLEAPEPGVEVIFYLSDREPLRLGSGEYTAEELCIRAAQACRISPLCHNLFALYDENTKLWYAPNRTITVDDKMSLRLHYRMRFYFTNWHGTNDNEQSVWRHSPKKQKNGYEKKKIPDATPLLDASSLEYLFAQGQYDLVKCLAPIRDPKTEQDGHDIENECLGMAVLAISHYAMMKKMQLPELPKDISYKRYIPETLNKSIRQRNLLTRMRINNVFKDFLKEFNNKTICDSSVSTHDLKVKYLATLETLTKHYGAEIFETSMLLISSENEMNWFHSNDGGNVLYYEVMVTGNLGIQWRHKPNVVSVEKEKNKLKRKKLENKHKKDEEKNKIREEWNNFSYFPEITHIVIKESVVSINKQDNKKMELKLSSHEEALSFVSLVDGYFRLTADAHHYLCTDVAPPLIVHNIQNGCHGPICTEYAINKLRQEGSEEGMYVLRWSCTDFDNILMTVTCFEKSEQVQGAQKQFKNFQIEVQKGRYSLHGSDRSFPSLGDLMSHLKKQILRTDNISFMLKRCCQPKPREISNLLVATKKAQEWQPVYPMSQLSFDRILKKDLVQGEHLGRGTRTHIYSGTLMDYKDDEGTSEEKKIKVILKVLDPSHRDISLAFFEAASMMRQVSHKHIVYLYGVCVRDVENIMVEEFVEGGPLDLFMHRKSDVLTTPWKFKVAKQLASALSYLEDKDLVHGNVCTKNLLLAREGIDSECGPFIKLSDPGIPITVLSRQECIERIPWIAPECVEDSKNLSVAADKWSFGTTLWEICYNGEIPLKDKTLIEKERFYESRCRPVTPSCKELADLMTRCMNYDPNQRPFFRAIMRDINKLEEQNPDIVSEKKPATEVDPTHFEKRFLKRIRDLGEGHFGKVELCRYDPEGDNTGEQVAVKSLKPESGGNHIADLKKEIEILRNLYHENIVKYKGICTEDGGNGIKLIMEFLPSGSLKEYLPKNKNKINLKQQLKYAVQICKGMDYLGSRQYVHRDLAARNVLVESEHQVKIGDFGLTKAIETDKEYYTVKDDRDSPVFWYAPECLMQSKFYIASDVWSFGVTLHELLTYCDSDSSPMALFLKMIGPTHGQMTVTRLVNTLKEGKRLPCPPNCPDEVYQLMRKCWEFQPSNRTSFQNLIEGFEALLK

For `N#CCC1(n2cc(-c3ncnc4[nH]ccc34)cn2)CN(C2CCN(C(=O)Nc3ccc(F)cc3C(F)(F)F)CC2)C1`, the IC50 in assay [1] is under 100 nM.
Still for that read-out and setting: the figure for `N#CCC1(n2cc(-c3ncnc4[nH]ccc34)cn2)CN(C2CCN(C(=O)c3ccnc(C(F)(F)F)n3)CC2)C1` is under 100 nM; for `N#CC[C@]1(n2cc(-c3ncnc4[nH]ccc34)cn2)C[C@H](N2CCC(Oc3cc(CN4CC(O)C4)cc(C(F)(F)F)n3)CC2)C1` it is under 100 nM; for `N#CCC(C1CCN(c2nc3cccnc3o2)C1)n1cc(-c2ncnc3[nH]ccc23)cn1` (centres undefined) it is under 100 nM.
Still for that read-out and setting: with `N#CC[C@]1(n2cc(-c3ncnc4[nH]ccc34)cn2)C[C@H](N2CCN(C(=O)c3ccnc(C(F)(F)F)n3)CC2)C1` the figure was under 100 nM; with `CCNCc1cc(O[C@H]2CC[C@@H](N3CC(CC#N)(n4cc(-c5ncnc6[nH]ccc56)cn4)C3)CC2)nc(C(F)(F)F)c1`, under 100 nM.
For `CC(NC(=O)c1c(N)nn2cccnc12)c1cc(Cl)c2cn(CC(=O)N3CCOCC3)nc2c1-c1ccccc1` (centres undefined), the IC50 in assay [2] and in assay [3] was under 500 nM each time.
As for `N#CC[C@]1(n2cc(-c3ncnc4[nH]ccc34)cn2)C[C@H](N2CCC(Oc3cc(CN4CCC[C@@H]4CO)cc(C(F)(F)F)n3)CC2)C1`, the IC50 in assay [1] is under 100 nM.
`N#CCC(CN1CCN(C(=O)c2ccc(C#N)cc2F)CC1)n1ccc(-c2ncnc3[nH]ccc23)c1` (centres undefined) had an IC50 in assay [1] of under 100 nM.
`CC(NC(=O)c1c(N)nn2cccnc12)c1cc(Cl)c2cnn(CCN3CCOCC3)c2c1-c1ccccc1` (centres undefined): the IC50 in assay [2] and in assay [3] was under 100 nM throughout.
As for `CCOc1c(C(C)NC(=O)c2c(N)nn3cccnc23)cc(Cl)c2cn(C)nc12` (centres undefined), the IC50 in assay [2] and in assay [3] was under 500 nM in each case.
On to `Cc1cc(C(C)NC(=O)c2c(N)nn3cccnc23)c(-c2ccccc2)c2[nH]nc(C)c12` (centres undefined), for which the values for the IC50 in assay [2] and in assay [3] were under 500 nM and under 2000 nM, respectively.
`N#CCC1(n2cc(-c3ncnc4[nH]ccc34)cn2)CN([C@H]2CC[C@@H](Oc3cc(CCO)nc(C(F)(F)F)n3)CC2)C1`: the IC50 in assay [1] was under 100 nM.
On the same count and under the same terms, with `N#CC[C@]1(n2cc(-c3ncnc4[nH]ccc34)cn2)C[C@H](N2CCC(Oc3cc(CCO)cc(C(F)(F)F)n3)CC2)C1` the figure was under 100 nM; with `CC(C)(O)c1cc(O[C@H]2CC[C@@H](N3CC(CC#N)(n4cc(-c5ncnc6[nH]ccc56)cn4)C3)CC2)nc(C(F)(F)F)c1`, under 100 nM.
With `CC(NC(=O)c1c(N)nn2cccnc12)c1cc(Cl)c2c(Br)n[nH]c2c1-c1ccccc1` (centres undefined), the IC50 in assay [2] is under 100 nM; in assay [3], under 2000 nM.
For `CC(NC(=O)c1c(N)nn2cccnc12)c1cc(C#N)c2cncn2c1-c1ccccc1` (centres undefined) the same measures were under 500 nM and under 500 nM.
`CC(NC(=O)c1c(N)nn2cccnc12)c1cc(Cl)c2cn(Cc3ccn(C)n3)nc2c1-c1ccccc1` (centres undefined): the results for the IC50 in assay [2] and in assay [3] were under 500 nM and under 2000 nM, respectively.
For `Cc1ncc2c(Cl)cc(C(C)NC(=O)c3c(N)nn4cccnc34)c(-c3cccc(F)c3)n12` (centres undefined) the same measures were under 100 nM and under 100 nM.
In turn, `C[C@@H](CO)NCc1cc(OC2CCN([C@H]3C[C@](CC#N)(n4cc(-c5ncnc6[nH]ccc56)cn4)C3)CC2)nc(C(F)(F)F)c1` had an IC50 in assay [1] of under 100 nM.
Regarding `CC(NC(=O)c1c(N)nn2cccnc12)c1cc(Cl)c2cn[nH]c2c1-c1ccccc1` (centres undefined), the IC50 in assay [2] was under 100 nM; in assay [3], under 500 nM.
In the case of `C[C@@H](O)c1nc2cnc3ccsc3c2n1[C@H]1CC[C@H](CC#N)OC1`, in assay [1], the IC50 was under 500 nM.
`Cc1n[nH]c2c(-c3ccccc3)c(C(C)NC(=O)c3c(N)nn4cccnc34)cc(Cl)c12` (centres undefined): the IC50 in assay [2] is under 100 nM; in assay [3], under 500 nM.
The like results for `Cc1cc(C(C)NC(=O)c2c(N)nn3cccnc23)c(-c2cccc(F)c2)n2c(C)ncc12` (centres undefined) were, in that order, under 100 nM and under 2000 nM.
The like results for `CCCC(NC(=O)c1c(N)nn2cccnc12)c1cc(Cl)c2cncn2c1N1CCS(=O)(=O)CC1` (centres undefined) were, in that order, under 100 nM and under 100 nM.
The like results for `CC(NC(=O)c1c(N)nn2cccnc12)c1cc(Cl)c2cncn2c1-c1ccccc1` (centres undefined) were, in that order, under 100 nM and under 100 nM.
The molecule `C[C@@H](O)CNCc1cc(OC2CCN([C@H]3C[C@](CC#N)(n4cc(-c5ncnc6[nH]ccc56)cn4)C3)CC2)nc(C(F)(F)F)c1` registered an IC50 in assay [1] of under 100 nM.
Molecule `C[C@H](NC(=O)c1cc(F)c(N2CC(CC#N)(n3cc(-c4ncnc5[nH]ccc45)cn3)C2)cc1F)C(F)(F)F` returned an IC50 in assay [1] of under 100 nM.
As for `CCOc1c(C(C)NC(=O)c2c(N)nn3cccnc23)cc(Cl)c2cnn(C)c12` (centres undefined), the IC50 in assay [2] and in assay [3] was under 100 nM each time.
Regarding `N#CC[C@]1(n2cc(-c3ncnc4[nH]ccc34)cn2)C[C@H](N2CCC(Oc3cc(CN4CCC[C@H]4CO)cc(C(F)(F)F)n3)CC2)C1`, the IC50 in assay [1] was under 100 nM.
Consider `N#CCC1(n2cc(-c3ncnc4[nH]ccc34)cn2)CN([C@H]2CC[C@@H](Oc3cc(CN4CC[C@@H](O)C4)cc(C(F)(F)F)n3)CC2)C1`, for which the IC50 in assay [1] is under 100 nM.
For `CCOc1c(C(C)NC(=O)c2c(N)nn3cccnc23)cc(Cl)c2cn(CC)nc12` (centres undefined), the figures for the IC50 in assay [2] and in assay [3] were under 500 nM and under 2000 nM, respectively.
Molecule `N#CCC1(n2cc(-c3ncnc4[nH]ccc34)cn2)CN([C@H]2CC[C@@H](Oc3cc(CN4CC[C@H](O)C4)cc(C(F)(F)F)n3)CC2)C1` (single isomer, unassigned) returned an IC50 in assay [1] of under 100 nM.
Turning to `N#CCC1(n2cc(-c3ncnc4[nH]ccc34)cn2)CN(C2CCN(C(=O)c3ccnc(C(F)(F)F)c3F)CC2)C1` [ITACITINIB], the IC50 in assay [1] was under 100 nM.
